Test results as given in US10786522B2, “Compositions that include anthocyanidins and methods of use” (Maqui NewLife S.A., priority 2009, dated 2020).

Tests used:
[1] = test system: NF-κB; assay: NF-κB luciferase reporter assay in HL-60 cells; format: cell-based, Human; settings: positive control, concentration not given
Experimental: We examined the effect of anthocyanidins on NF-κB activation using a luciferase reporter assay in HL-60 cells (Human promyelocytic leukemia cells). HL-60 cells in IMDM medium were transfected with a reporter vector with an NF-kB consensus sequence located in the luciferase promoter for 24 h at 37° C., then were incubated with delphinidin-rich anthocyanidins diluted 1:500000, 1:50000, and 1:5000. PMA was used as positive control. Luciferase activity was measured with a Dual luciferase assay kit (Promega) according to the supplier's instructions. A vector that constitutively expressed renilla luciferase was used to standardize the assay.

[2] = test system: PPAR-γ; assay: PPAR-γ-Luc reporter assay in HL-60 cells; format: cell-based, Human; settings: control substances, 12 h, concentration not given
Experimental: We examined the effect of delphindin-rich anthocyanidins on PPAR-γ activation. HL-60 cells in IMDM medium were transfected with the reporter vectors PPAR-γ-Luc (5 μg) (Panomics) and TK-RL (1 μg) (Promega) using Fugene 6 reagent (Roche), and cultured for 24 hr. Then, the cells were incubated for 12 h in 0.175, 1.75, or 17.5 μg/ml of delphindin-rich anthocyanidins, phorbol myristate acetate (PMA), 15-deoxi-d 12,14-prostaglandin J2 (PGj2), or tumor necrosis factor alpha (TNFα) as controls. Luciferase activity was measured using the Dual-Luciferase Reporter Assay kit (DLR) from Promega in a luminometer (Luminoskan).

CCCCCCCCCCCCCC(=O)O[C@@H]1[C@@H](C)[C@@]2(O)[C@@H](C=C(CO)C[C@]3(O)C(=O)C(C)=C[C@@H]23)[C@@H]2C(C)(C)[C@]12OC(C)=O [PMA, phorbol myristate acetate]
Average percentage activity of control [pNF-κB/pRL-luc] [1]: 50% | Average percentage activity of control [PPAR-γ-Luc/TK-RL] ± SD [2]: 527.5 ± 536.3%
